From PMC9268515, “UGT1A1 and UGT1A9 Are Responsible for Phase II Metabolism of Tectorigenin and Irigenin In Vitro” (Molecules, 2022) come the findings set out here.

Assay type in all cases: in vitro ADME
The test system of data set [1] is pooled human liver microsomes (HLMs). As to the kind of experiment: Glucuronidation kinetics of tectorigenin and irigenin in HLMs. As to conditions: tectorigenin glucuronidation in HLMs, metabolite M. Here is the method: To obtain suitable incubation conditions, we first evaluated the linearity of metabolite formation at different times (10–60 min), the UDPGA concentrations (0.5–5 mM), and the microsome protein concentrations in HLMs (0.2–2 mg/mL). The final incubation medium used in the experiment contained MgCl2 (10 mM), microsomes (0.5 mg/mL), 1,4-lactone monohydrate (5 mM), alamethicin ([…]), UDPGA (1 mM), and different concentrations of tectorigenin or irigenin (1–300 μM) in Tris-HCl buffer (50 mM, pH 7.4). The mixture was incubated at 37 °C for 30 min; then, the reaction was stopped by adding ice-cold methanol. After the mixtures were centrifuged (17,000 rpm, 10 min), and the supernatant was analyzed by HPLC. Michaelis–Menten parameters (Vmax and Km) were determined on the basis of the nonlinear regression of the plot of the substrate concentration vs. rate of metabolite formation.
(§1) For both HLMs and UGTs, metabolic kinetic analysis was performed by fitting the data to the Michaelis-Menten model. The Km and Vmax of enzymes were calculated as follows:(3) V=Vmax×[S]/Km+[S], where [S] is the substrate concentration. All results were shown as the mean ± standard error (SE). Differences among different groups were compared using one-way analysis of variance. A p-value < 0.05 was considered statistically significant.

For another data set, the target named is T1, UGT1A9 (Homo sapiens, UniProt O60656).
T1 construct: purchased BD Biosciences (Woburn, MA, USA)
T1 sequence (O60656 26-530): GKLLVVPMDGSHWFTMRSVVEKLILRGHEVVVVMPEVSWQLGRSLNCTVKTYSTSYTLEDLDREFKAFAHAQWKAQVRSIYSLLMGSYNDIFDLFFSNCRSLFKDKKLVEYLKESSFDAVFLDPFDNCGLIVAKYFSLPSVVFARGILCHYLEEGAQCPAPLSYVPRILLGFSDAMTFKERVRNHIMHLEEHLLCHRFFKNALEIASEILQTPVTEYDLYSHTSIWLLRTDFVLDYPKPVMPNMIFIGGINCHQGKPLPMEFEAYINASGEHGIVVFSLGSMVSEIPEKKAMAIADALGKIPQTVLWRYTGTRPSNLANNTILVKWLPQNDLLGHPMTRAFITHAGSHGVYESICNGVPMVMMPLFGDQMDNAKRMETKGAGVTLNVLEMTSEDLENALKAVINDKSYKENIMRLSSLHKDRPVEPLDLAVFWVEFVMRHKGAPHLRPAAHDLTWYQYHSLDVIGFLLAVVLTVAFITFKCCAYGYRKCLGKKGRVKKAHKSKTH
As to the kind of experiment: Recombinant UGT reaction screening and enzyme kinetics, UGT1A9. As to conditions: recombinant UGT1A9 screening. Here is the method:
(§2) UGT reaction screening of tectorigenin and irigenin was conducted using nine commercially available human UGTs (UGT1A1/1A3/1A4/1A6/1A9/2B4/2B7/2B15/2B17). Furthermore, we studied the enzymatic kinetic characteristics of tectorigenin and irigenin using UGT1A1 and UGT1A9. Six concentrations of tectorigenin and irigenin (1, 3, 10, 30, 100, and 300 μM) were incubated in triplicate in order to obtain the enzyme kinetic characteristics of tectorigenin and irigenin glucuronide.
as §1

In a further data set the target is T2, UGT1A4 (Homo sapiens, UniProt P22310).
T2 construct: purchased BD Biosciences (Woburn, MA, USA)
T2 sequence (P22310 29-534): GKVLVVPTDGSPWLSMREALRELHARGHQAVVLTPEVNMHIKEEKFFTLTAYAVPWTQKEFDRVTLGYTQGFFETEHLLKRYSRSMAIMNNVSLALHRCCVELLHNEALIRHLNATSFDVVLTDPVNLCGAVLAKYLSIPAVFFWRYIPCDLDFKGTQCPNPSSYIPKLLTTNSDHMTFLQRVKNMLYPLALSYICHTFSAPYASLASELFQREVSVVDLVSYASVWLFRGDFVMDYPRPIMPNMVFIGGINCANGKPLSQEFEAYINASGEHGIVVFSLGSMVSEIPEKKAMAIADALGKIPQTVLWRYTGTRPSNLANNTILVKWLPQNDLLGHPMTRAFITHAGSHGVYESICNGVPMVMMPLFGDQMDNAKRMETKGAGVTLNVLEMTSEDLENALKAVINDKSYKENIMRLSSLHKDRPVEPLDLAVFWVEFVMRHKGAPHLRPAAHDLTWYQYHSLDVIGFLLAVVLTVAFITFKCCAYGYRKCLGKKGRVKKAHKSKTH
As to the kind of experiment: Recombinant UGT reaction screening, UGT1A4. The method, then: as §2

The target in the next data set is T3, UGT2B15 (Homo sapiens, UniProt P54855).
T3 construct: purchased BD Biosciences (Woburn, MA, USA)
T3 sequence (P54855 24-530): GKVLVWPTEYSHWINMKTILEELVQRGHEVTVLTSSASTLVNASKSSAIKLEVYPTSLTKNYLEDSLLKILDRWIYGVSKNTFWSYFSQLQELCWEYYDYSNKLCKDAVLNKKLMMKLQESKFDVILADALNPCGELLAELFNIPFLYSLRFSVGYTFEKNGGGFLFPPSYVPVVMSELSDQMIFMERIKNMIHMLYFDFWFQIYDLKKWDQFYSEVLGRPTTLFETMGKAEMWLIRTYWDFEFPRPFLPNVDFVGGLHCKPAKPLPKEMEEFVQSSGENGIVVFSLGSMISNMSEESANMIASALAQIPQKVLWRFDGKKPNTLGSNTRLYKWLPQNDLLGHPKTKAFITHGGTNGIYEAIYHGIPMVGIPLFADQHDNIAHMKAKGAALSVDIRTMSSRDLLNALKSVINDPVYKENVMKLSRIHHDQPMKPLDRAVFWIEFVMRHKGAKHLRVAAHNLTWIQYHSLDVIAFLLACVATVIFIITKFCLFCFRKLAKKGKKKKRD
Briefly: Recombinant UGT reaction screening, UGT2B15. The method, then:
as §2

The target in the next data set is T4, UGT2B17 (Homo sapiens, UniProt O75795).
T4 construct: purchased BD Biosciences (Woburn, MA, USA)
T4 sequence (O75795 24-530): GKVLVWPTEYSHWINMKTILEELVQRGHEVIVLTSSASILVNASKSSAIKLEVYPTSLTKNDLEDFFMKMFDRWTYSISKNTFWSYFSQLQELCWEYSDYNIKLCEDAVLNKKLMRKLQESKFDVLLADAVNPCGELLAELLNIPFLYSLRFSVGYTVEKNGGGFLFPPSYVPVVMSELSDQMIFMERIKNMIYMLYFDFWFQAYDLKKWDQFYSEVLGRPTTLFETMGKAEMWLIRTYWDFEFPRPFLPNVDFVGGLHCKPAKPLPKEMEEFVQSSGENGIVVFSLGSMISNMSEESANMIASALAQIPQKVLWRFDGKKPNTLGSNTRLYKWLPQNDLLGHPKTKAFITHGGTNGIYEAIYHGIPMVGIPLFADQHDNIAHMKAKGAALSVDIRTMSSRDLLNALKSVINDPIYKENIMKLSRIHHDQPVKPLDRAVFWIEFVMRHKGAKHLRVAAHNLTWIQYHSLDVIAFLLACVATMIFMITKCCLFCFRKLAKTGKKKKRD
Briefly: Recombinant UGT reaction screening, UGT2B17. The method, then:
as §2

For the molecule `COc1c(O)cc2occ(-c3ccc(O)cc3)c(=O)c2c1O` [Tectorigenin, 5,7,4′-trihydroxyl-6-methoxyl isoflavone], in data set [1], the “Vmax for M formation” value is given as 5.87 ± 0.25 nmol/min/mg. Further, in data set [1] (read-out: Km for M formation), the Michaelis constant (Km) came to 32.8 ± 4.79 µM. In addition, the “Activity in glucuronidation of tectorigenin” value on UGT1A9 is listed as “highest activity”; on UGT1A4, “some activity”; at UGT2B15 it was “none”; at UGT2B17 it was “none”.

As usually defined, the Km is the concentration of substrate that gives half-maximal velocity.
